Assays:
ER-α = assay: Western immunoblotting for ER-α in MCF-7 cells; assay type: cell-based, human; details: 1–10 μM, 6 days, dose-dependent
Procedure: (§1) At the end of the treatment, cells were scrapped and collected by washing with ice-cold PBS in a centrifuge tube. Cells were centrifuged at 2500 r.p.m. for 10 min, the pellet was again washed with ice-cold PBS and centrifuged. The cell pellet was then suspended in chilled cell lysis buffer (0.1 M Tris–HCl, 0.5% Triton X-100, protease inhibitor cocktail) and sonicated on ice for 10–15 s. The homogenate was kept on ice for 30 min and then centrifuged at 13 000 r.p.m. for 30 min. The supernatant was used as cell lysate. The cell lysates were stored at −80°C. Protein concentration of the cell lysates was determined using Bio-Rad protein assay reagents.
(§2) Protein lysates from MCF-7 and T47D cells were subjected to sodium dodecyl sulphate–polyacrylamide gel electrophoresis (SDS–PAGE) and immunoblotted for different proteins. […] Immunoreactive bands were visualised using the enhanced chemiluminescence detection reagents and analysis system (Amersham Bioscences) according to the manufacturer's instructions and quantified by densitometry using ImageQuant software version 5.
Figure 4 Western immunoblotting analysis of whole-cell lysates of treated MCF-7 cells for the expression of ER-α. […] Numbers below the blot show fold increase in expression of the protein as analysed by ImageQuant densitometry analysis. […]

Bad = assay: Western immunoblotting for Bad in MCF-7 and T47D cells; assay type: cell-based, human; details: 1, 5 and 10 μM each; 6 days; no significant dose-dependent effect
Procedure: as §1, §2
(§3) Figure 7 (A) Western immunoblotting of whole-cell lysates of treated MCF-7 and T47D cells for the expression of Bad. […] Numbers below the blot show fold increase in expression of the protein as analysed by ImageQuant densitometry analysis. […]

caspase-9 = assay: Western immunoblotting for caspase-9 in T47D cells; assay type: cell-based, human; details: 6 days
Procedure: as §1
Protein lysates from MCF-7 and T47D cells were subjected to sodium dodecyl sulphate–polyacrylamide gel electrophoresis (SDS–PAGE) and immunoblotted for different proteins. Equal amounts of protein (25–50 μg) were subjected to SDS–PAGE at 60 V for 3 h using the mini PROTEAN3 electrophoresis module assembly (Bio-Rad, Hercules, CA, USA), and transferred to nitrocellulose membranes (Hybond ECL, Amersham). Immunodetections were carried out using antibodies against CK 8/18 (1° antibody – 1 : 8000 in 10% milk PBST), E-cadherin (1° antibody – 1 : 1000 in 5% milk in TBST) and ER-α (1° antibody – 1 : 200 in 5% milk PBST) purchased from Santa Cruz Biotechnology Inc. Antibodies against PARP (1° antibody – 1 : 1000 in 5% milk TBST), cyclin- D1 (1° antibody – 1 : 2000 in 10% milk TBST), caspase-9 (1° antibody – 1 : 1000 in 10% milk TBST) and BAD (1° antibody – 1 : 1000 in 5% BSA TBST) were obtained from Cell Signaling Technology. Antibody for β-actin was obtained from Calbiochem (CA, USA). Secondary anti-mouse IgG HRP conjugate antibody was purchased from Calbiochem and Bio-Rad. Secondary anti-rabbit IgG HRP conjugate antibody was bought from Bio-Rad as well as from Kirkegaard and Perry laboratories (Gaithersburg, MD, USA). Immunoreactive bands were visualised using the enhanced chemiluminescence detection reagents and analysis system (Amersham Bioscences) according to the manufacturer's instructions and quantified by densitometry using ImageQuant software version 5.
Figure 7 (A) Western immunoblotting of whole-cell lysates of treated MCF-7 and T47D cells for the expression of Bad. […] Numbers below the blot show fold increase in expression of the protein as analysed by ImageQuant densitometry analysis. Membranes were stripped and probed for β-actin to verify equal protein loading. Primary antibody (Cell Signaling Technology) 1 : 1000 in 5% BSA TBST overnight at 4°C and secondary antibody (anti-rabbit) 1 : 2000 for 1 h at RT. This experiment was repeated twice with similar results. […] Numbers below the blot show fold increase in the active form of caspase-9 as compared with control. Membrane was stripped and probed for β-actin to verify equal amount of protein loading. The primary and secondary antibodies and their dilutions are as follows: primary antibody (Cell Signaling Technology), 1 : 1000 in 10% milk TBST overnight at 4°C and secondary antibody (anti-rabbit) 1 : 2000 in 10% milk TBST for 1 h at RT. Densitometry analysis was performed by ImageQuant software. This experiment was repeated twice with similar results. (C) Western immunoblotting of whole-cell lysates of treated MCF-7 and T47D cells for the expression of full-length and cleaved PARP. […] T47D cells were treated with RAMBAs (VN/50-1 and VN/14-1) for 6 days and then cell lysates were electrophoresed using 10% SDS–PAGE and subjected to Western blotting. Lane 1: control; lanes 2–4: VN/50-1 (1, 5 and 10 μM); lanes 5–7: VN/14-1 (1, 5 and 10 μM). Numbers below the blot show fold increase in expression of the protein as analysed by ImageQuant densitometry analysis. Membranes were stripped and probed for β-actin to verify equal protein loading. Primary antibody (Cell Signaling Technology) 1 : 1000 in 5% milk TBST overnight at 4°C and secondary antibody (anti-rabbit) 1 : 2000 for 1 h at RT. […]

PARP = assay: Western immunoblotting for cleaved PARP in MCF-7 cells; assay type: cell-based, human; details: 5 μM, 6 days
Procedure: as §1, §2, §3

RARβ = target: T1, RARβ (Mus musculus, UniProt P22605); assay: Transactivation assay (RARE-CAT reporter, CV-1 cells), RARβ; assay type: cell-based; details: 50% of maximal activity obtained with 10^−6 M all-trans-RA
T1 construct: expressed in transfected cells; host or cells: CV-1 cells
T1 sequence (P22605 1-448 isoform P22605-3): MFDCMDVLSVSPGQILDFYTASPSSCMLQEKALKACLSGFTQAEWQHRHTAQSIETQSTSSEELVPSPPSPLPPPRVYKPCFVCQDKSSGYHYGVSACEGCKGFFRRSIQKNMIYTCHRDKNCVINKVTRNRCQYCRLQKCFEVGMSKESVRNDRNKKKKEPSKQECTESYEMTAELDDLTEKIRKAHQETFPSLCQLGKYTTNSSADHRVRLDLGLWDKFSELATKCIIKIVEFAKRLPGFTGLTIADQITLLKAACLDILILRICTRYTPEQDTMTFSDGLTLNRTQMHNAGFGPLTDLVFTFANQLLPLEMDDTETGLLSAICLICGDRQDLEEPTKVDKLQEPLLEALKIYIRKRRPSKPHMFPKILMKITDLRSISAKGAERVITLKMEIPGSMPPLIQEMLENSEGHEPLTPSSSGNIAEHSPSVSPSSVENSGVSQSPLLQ
Procedure: Briefly, CV-1 cells were cotransfected with 4 μg RAR subtype (RARα, RARβ or RARγ) expression vector construct in pSG5, 4 μg RARE-CAT reporter DNA and 1 μg pCMV-β-gal DNA. Twenty-four hours following transfection, the cells were treated with various concentrations of each RAMBA ranging from 10^−11–10^−5 M along with an ethanol carrier control. Additional cells were treated with 10^−6 M all-trans-RA for normalisation. Twenty-four hours later, the cells were harvested and CAT and β-gal activities were assayed.

MDA-MB-231 cells = system: MDA-MB-231 cells; design: method as in Patel et al. (2004); details: inhibition of cell proliferation by 50%; ref Patel et al. (2004); read-out: Cellular IC50, MDA-MB-231; cited from earlier work

| Structure (SMILES) | Increase in expression of ER-α (ER-α) | Upregulation of Bad protein (Bad) | Expression of procaspase-9 (47 kDa), control = 1 (caspase-9; 5 μM) [fold] | Increase of active form of caspase-9 (37 kDa) compared with untreated control (caspase-9; 5 μM) [fold] | Expression of procaspase-9 (47 kDa), control = 1 (caspase-9; 10 μM) [fold] | Increase of active form of caspase-9 (37 kDa) compared with untreated control (caspase-9; 10 μM) [fold] | Increase in level of cleaved PARP (89 kDa) compared with control (PARP) | EC50 (RARβ) [µM] | IC50 (MDA-MB-231 cells) [µM] |
| --- | --- | --- | --- | --- | --- | --- | --- | --- | --- |
| CC1=C(/C=C/C(C)=C/C=C/C(C)=C/C(=O)O)C(C)(C)CCC1 [ATRA, all-trans-retinoic acid, reference compound] | from two- to eight-fold | about two-fold | 0.4 | 1.7 | 0.3 | 1.8 | almost two-fold increases |  |  |
| CC1=C(/C=C/C(C)=C/C=C/C(C)=C/C(=O)O)C(C)(C)CCC1n1ccnc1 (centres unmarked) [VN/14-1] | from four- to six-fold | about two-fold | 0.4 | 1.7 | 0.7 | 1.7 | almost two-fold increases | 1.5 |  |
| CC1=C(/C=C/C(C)=C/C=C/C(C)=C/C(=O)Nc2ccc(O)cc2)C(C)(C)CCC1n1ccnc1 (centres unmarked) [VN/66-1] |  |  |  |  |  |  |  |  | 5.62 |
| CC1=C(/C=C/C(C)=C/C=C/C(C)=C\C(=O)Nc2ccc(O)cc2)C(C)(C)CCC1n1ccnc1 (centres unmarked) [VN/69-1] |  |  |  |  |  |  |  | > 10 |  |

Source: paper PMC2360155, “Novel retinoic acid metabolism blocking agents have potent inhibitory activities on human breast cancer cells and tumour growth” (British Journal of Cancer, 2007)
